Laboratory results reported in patent US20160015786A1, “MOBILIZING AGENTS AND USES THEREFOR” (MATER MEDICAL RESEARCH INSTITUTE LIMITED, priority 2013, published 2016).

How the values were obtained:
[1] = system: colony-forming cells (CFCs); test: Mobilization of colony-forming cells (CFC/CFU) to blood and spleen, colony assays; format: in vivo, C57BL/6 mice
Procedure: Mobilization of colony-forming cells (CFCs) to the blood and spleen were measured (FIG. 1B).
This was divided into two experiments in which G-CSF was administered for 2 days in one experiment and 4 days in the other (FIG. 2). […] Mobilization of CFCs, phenotypic Lin^−CD41^−Sca1^+Kit^+ HSPCs and Lin^−CD41^− Sca1^+Kit^+CD48^−CD150^+ HSCs were measured in blood and spleens.
Additional HIF-α potentiating agents in the form of PHD inhibitors were tested for their ability to enhance mobilization induced by G-CSF.
(§1) At the end of treatment, blood was harvested by cardiac puncture, mice were sacrificed by cervical dislocation and spleens harvested. Femurs were removed, cleaned and the bone marrow was flushed with 1 mL PBS+10% newborn calf serum (NCS).
The number of phenotypic hematopoietic stem and progenitor cells remaining in the bone marrow following treatment was measured by flow cytometry using antibodies specific for lineage markers (CD3, CD5, CD45R/B220, F4/80, Gr1, CD41, Ter119), Sca-1, Kit, CD48 and CD150. Similarly, the number of phenotypic hematopoietic stem cells mobilized into the blood and spleen were measured. Colony assays were also performed on blood and spleen to determine the number of colony forming cells per mL of blood and per spleen. […] Levels of significance for differences were calculated using the Student's t-test.
All procedures were approved by the animal experimentation ethics committee of the University of Queensland. […] Plerixafor (AMD3100 octohydrochloride, Tocris Bioscience, Bristol, UK) was injected intraperitoneally as a single 16 mg/kg dose corresponding to 10 mg/kg of AMD3100 base. Tissues were harvested 1 h after Plerixafor administration. […] Control mice were injected with an equivalent volume of saline. At specified time-points, mice were anesthetized with isoflurane before cardiac puncture to harvest blood. Mice were then euthanized by cervical dislocation and BM and bones harvested.
Optimal concentrations of mouse IL-3, IL-6 and soluble kit ligand were added as conditioned media from stably transfected BHK cell lines. Colonies were counted after 7 days culture at 37° C. in a humidified incubator containing 5% CO2.

[2] = system: hematopoietic stem and progenitor cells; test: Phenotypic HSCs, HSPCs and myeloid progenitors in blood, spleen and bone marrow by flow cytometry; format: in vivo, C57BL/6 mice
Procedure: Additional HIF-α potentiating agents in the form of PHD inhibitors were tested for their ability to enhance mobilization induced by G-CSF. Compound A, Compound B or Compound C, were tested in male, 7 weeks-old C57BL/6 mice. Mice were injected twice daily sub-cutaneously with rhuG-CSF at a dose of 125 μg/kg per injection for four days. Mice were gavaged with 20 mg/kg Compound A, Compound B, Compound C or vehicle control once daily for three days beginning on day 1 of the experiment.
as §1
The number of phenotypic hematopoietic stem and progenitor cells remaining in the bone marrow following treatment was measured by flow cytometry using antibodies specific for lineage markers (CD3, CD5, CD45R/B220, F4/80, Gr1, CD41, Ter119), Sca-1, Kit, CD48 and CD150. Similarly, the number of phenotypic hematopoietic stem cells mobilized into the blood and spleen were measured. Colony assays were also performed on blood and spleen to determine the number of colony forming cells per mL of blood and per spleen. All results are presented as mean f standard deviation with n=6 per groups. Levels of significance for differences were calculated using the Student's t-test.
All procedures were approved by the animal experimentation ethics committee of the University of Queensland. All experiments were performed on nine to twelve-week old C57BL/6 male mice or genetically modified mice back-crossed at least 10 times into C57BL/6. Recombinant human G-CSF (Amgen, Thousand Oaks, Calif.) was injected twice daily subcutaneously at 125 μg/kg per injection for up to 4 consecutive days. Plerixafor (AMD3100 octohydrochloride, Tocris Bioscience, Bristol, UK) was injected intraperitoneally as a single 16 mg/kg dose corresponding to 10 mg/kg of AMD3100 base. Tissues were harvested 1 h after Plerixafor administration. […] Compounds H and J were administered at 60 mg/kg and Compound K was administered at 100 mg/kg. Control mice were injected with an equivalent volume of saline. At specified time-points, mice were anesthetized with isoflurane before cardiac puncture to harvest blood. Mice were then euthanized by cervical dislocation and BM and bones harvested.
Following flushing with PBS plus 2% NCS, enriched central BM cells were pelleted at 370×g for 5 minutes at 4° C. and resuspended in CD16/CD32 hybridoma 2.4G2 supernatant to block IgGFc receptors. HSCs were stained with the biotinylated lineage antibody cocktail (CD3, CD5, B220, CD11b, Gr-1, Ter119) and biotinylated CD41 together with streptavidin (SAV)-Pacific Blue, anti-Sca-1-PECY7, anti-KIT-APC, CD48-FITC and CD150-PE as previously described (17). Data were acquired on a CyAn (Dako Cytomation) flow cytometer and analyzed following compensation with single color controls using FlowJo software (Tree Star, Ashland, Oreg.).

[3] = Compound X added to 2 days G-CSF plus Plerixafor, p<0.005
[4] = Compound X added to 2 days G-CSF plus Plerixafor, P<0.01
[5] = G-CSF 2 days together with Compound X, p<0.005

Structure (SMILES): O=C(O)CNC(=O)c1ncc2cc(Sc3ccccc3)ccc2c1O [Compound X, [(4-Hydroxy-7-phenylsulfanyl-isoquinoline-3-carbonyl)-amino]-acetic acid]
- mobilization of HSPC to the spleen ([1]; 1 hr following Plerixafor treatment with or without Compound X, FIG. 1D): no significant mobilization
- day of Compound X administration at which CFC mobilization into blood and spleen peaks ([1]; Compound X 1-4 days, G-CSF for the last 2 days, FIG. 1C): 3 days
- further increase of CFC/mL mobilized into blood [1, 3]: 2.5 fold
- further increase of CFC/spleen [1, 3]: 4 fold
- boost of CFC/mL blood ([1]; Compound X added to 4 days G-CSF plus Plerixafor, p<0.005): 2.5 fold
- CFC mobilization into the blood ([1]; Compound X alone for 3 days): did not induce
- increase in CFCs mobilized per mL blood ([1]; Example 1: Compound X 3 days added to G-CSF, following 2 days of G-CSF, FIG. 1B): 2.5 fold
- increase of CFCs mobilized to the spleen ([1]; Example 1: Compound X 3 days added to G-CSF, following 3 days of G-CSF, FIG. 1B): 6 fold
- increase in the number of CFC/mL blood ([1]; Example 3: 4 days G-CSF, addition of Compound X, P<0.001): 4 fold
- number of CFC/spleen ([1]; Example 3: 4 days G-CSF, addition of Compound X, P<0.01): further significant increase
- mobilizing effect ([1]; Example 3: Compound X alone (data not shown)): no mobilizing effect
- CFC mobilized to the blood versus G-CSF alone ([1]; Example 3: G-CSF 250 μg/kg/day 2 days + Compound X 20 mg/kg/day 3 days (G+X3), p<0.001, FIG. 2B): 4 fold
- CFC mobilized to the spleen versus G-CSF alone ([1]; Example 3: G-CSF 2 days + Compound X 20 mg/kg/day 3 days (G+X3), p<0.001, FIG. 2B): 47 fold
- number of CFC mobilized per mL blood in response to Plerixafor ([1]; Plerixafor 1 h plus 2 to 3 day treatment with Compound X, FIG. 1D): significantly increased
- boost of mobilization of HSPCs in the blood [2, 4]: 2.5 fold
- boost of mobilization of HSPCs in the spleen [2, 4]: 4 fold
- boost of mobilization of phenotypic HSCs [2, 4]: 3 fold
- number of phenotypic HSCs and HSPCs in the blood ([2]; Compound X added to 4 days G-CSF and Plerixafor, P<0.001): dramatically increased
- number of Lin−Sca1+Kit+ HSPCs in spleen versus G-CSF alone [2, 5]: tripled
- number of Lin−Sca1+Kit+ HSPCs in the blood versus G-CSF alone [2, 5]: doubled
- increase in number of phenotypic HSCs versus G-CSF alone ([2]; G-CSF 2 days together with Compound X, p<0.005, FIG. 2C-D): 3 fold
